# US20250295619A1, “Use of Salvianolic Acid E in the Preparation of Drugs Targeting Senescent Cells, Inhibiting Tumors or Extending Lifespan” (Shanghai Institute of Nutrition and Health, Chinese Academy …, priority 2024, published 2025)
# Experiments:
# PSC27 [1] = experiment: SA-β-Gal staining of PSC27 cells (bleomycin-induced senescence, increasing SAE concentration); format: cell-based, human
# Protocol: The P value of positive proportion of cells in these experimental groups for SAE at the concentrations of 100 μM, 200 μM, 400 μM, 800 μM, 1600 μM, 2000 μM and 3000 μM are statistically significant compared with the data at 0 μM.
# (§1) To cause cell damage, 50 μg/mL bleomycin (bleomycin, BLEO) was added to the culture medium when PSC27 cells grew to 80% (abbreviated as PSC27-CTRL). After 12 hours of drug treatment, the cells were simply washed 3 times with PBS, left in the culture medium for 7-10 days, and then the subsequent experiments were performed.
# Senescence-associated B-galactosidase (SA-β-Gal) staining was performed following a previously reported procedure (Debacq-Chainiaux, et. al., 2009). Briefly, cells in culture dishes were washed with PBS and fixed at room temperature. Cells were fixed in 2% formaldehyde and 0.2% glutaraldehyde for 3 minutes. SA-β-Gal was used for staining with freshly prepared staining solution overnight at 37° C. Images were taken on the next day and the percentage of positive cells per unit area was calculated.
# aged C57BL/6 mice = experiment: Lifespan study in aged C57BL/6 mice; format: in vivo, mouse; settings: administered from 24-27 months of age, every two weeks
# Protocol: Starting at 24 to 27 months of age, C57BL/6 mice received intraperitoneal administration of vehicle or SAE every two weeks (n=80 for vehicle group; n=91 for SAE group). The median survival of animals in each group was calculated and indicated. ****, P<0.0001.
# Starting at 24 to 27 months of age, C57BL/6 mice received intraperitoneal administration of vehicle or SAE every two weeks (n=80 for vehicle group; n=91 for SAE group). The median lifetime survival of animals in each group was calculated and indicated. ****, P<0.0001.
# For the cell transplantation study, the inventors obtained […] male C57BL/6 mice by serial rearing in the SPF animal platform, with 4 to 5 animals per cage. The inventors first sorted the mice by body weight from low to high, and then selected mice with similar body weights. Next, the mice were assigned to senescence (SEN) or control (CTRL) transplant treatment at each interval using a random number generator, while the middle mice were assigned to the other treatment, so that the body weights of the senescence and control transplant mice were matched. One month after cell transplantation, when the mice were 18 months old, physical function tests were performed. After that, no further testing was done on the mice other than checking their cages. The earliest deaths occurred approximately 2 months after the last physical function test. […]
# [2] = test system: senescent cells in tumor tissue; experiment: SA-β-Gal staining of tumor tissues of PC3/PSC27 tumor-bearing mice; format: in vivo, mouse; settings: SAE with MIT
# Protocol: Representative pictures after SA-β-Gal staining. Scale bar, 100 μm.
# In a preclinical treatment trial, subcutaneously transplanted mice were fed with a standard experimental diet, after 2 weeks chemotherapy drugs mitoxantrone (MIT, dose: 0.2 mg/kg) and/or SAE (500 μl, dose: 10 mg/kg) via intraperitoneal administration. The time points were: the former was administrated on the first day of the 3rd, 5th and 7th weeks, and the latter was administrated on the first day of the 5th and 7th weeks. A total of 3 cycles of MIT administration were carried out throughout the course of treatment, and each cycle lasted for 2 weeks. After the course of treatment, mouse tumors were harvested for volume measurement and histological analysis. Each mouse cumulatively received 0.6 mg/kg body weight of MIT and 30 mg/kg body weight of SAE. In order to cause systemic expression of SASP factors induced by chemotherapy, MIT was administered to mice through intravenous infusion according to the above steps and sequence, but the dose was reduced to 0.1 mg/kg body weight/each time (the cumulative dose of MIT received in the whole course of treatment was 0.3 mg/kg body weight) to reduce drug-related toxicity. The chemotherapy experiment ended at the end of the 8th week, and the mice were dissected immediately after sacrifice, and the xenograft tumors were collected and used for pathological system analysis.
# PSC27 [3] = experiment: Caspase 3/7 apoptosis detection in senescent PSC27 cells (IncuCyte); format: cell-based, human; settings: 200 μM SAE
# Protocol: PSC27 cells gradually entered the senescent stage after being treated with BLEO for 12 hours under culture conditions. 200 μM SAE was added to the medium of senescent cells starting from day 7, NucLight Rapid Red reagent was used to label the cells and caspase 3/7 reagent (IncuCyte) was used for apoptosis detection. Caspase 3/7 activity was detected every 4 hours (n=3).
# Statistical differences are obtained by two-way ANOVA (Turkey'test).
# PSC27 cells were plated in a 96-well dish, and the cells were induced to senescence under 50 μg/ml of BLEO treatment. SAE and ABT263 were added at concentrations of 200 μM and 1.25 μM, respectively. Cell culture medium was supplemented with Incucyte Nuclight fast Red Reagent (Essen Bioscience) and Incucyte C-3/7 Apoptosis Reagent (Essen Bioscience). Representative field of view was selected to take pictures.
# PSC27 [4] = experiment: CCK8 survival of proliferating and senescent PSC27 cells; format: cell-based, human
# Protocol: as §1
# Pharmacodynamic analysis was conducted on an organic chemical drug library (TOPSCIENCE) with a total of 1470 small molecule compounds, mostly derived from medicinal plants and had anti-senescence potential. Each product was diluted to a 96-well plate according to a certain concentration gradient, and the density was 5000 cells per well. The medium uses DMEM, and the working concentration of natural product (or compound) is generally controlled at […] to 1 mM. After 3-7 days of drug treatment, cell proliferation was measured with CCK-8 Cell Counting Kit (based on WST-8 principle, Vazyme), and cell apoptosis activity was determined with Caspase 3/7 Activity Kit (Promega).
# PC3/PSC27 tumors = experiment: DNA damage and apoptosis in tumors of treated mice; format: in vivo, mouse
# From the text: To investigate mechanisms directly supporting this senescence-associated pattern with expression and reversal of SASP in MIT-administered mice, the inventors dissected tumors in animals treated with both drugs 7 days after the first SAE administration, and the time point of 7 days after administration was selected mainly because drug-resistant clones had not yet formed in cancer cells in the lesion at this time. […] As supporting evidence, when SAE was applied during treatment, caspase 3 cleavage activity was increased, which was a typical hallmark of apoptosis (FIG. 29).
smiles,measurement,setting,value
"O=C(/C=C/c1ccc(O)c(O)c1/C(=C\c1ccc(O)c(O)c1)C(=O)O[C@H](Cc1ccc(O)c(O)c1)C(=O)O)O[C@H](Cc1ccc(O)c(O)c1)C(=O)O [SAE, salvianolic acid E]",SAE concentration at which senescent cells begin to be eliminated,PSC27 [1]; SA-β-Gal staining,200 µM
same,concentration at which the killing effect on senescent cells reaches a threshold,PSC27 [1]; SA-β-Gal staining,2000 µM
same,killing effect on senescent cells,PSC27 [1]; SAE increased to 3000 μM,not further enhanced
same,risk of death HR (SAE group/vehicle group),aged C57BL/6 mice,0.3249
same,senescent cells in the lesions of animals treated with chemotherapeutic drugs after SAE administration,[2],essentially depleted most senescent cells
same,caspase-3/7 activity: apoptosis of senescent cells,PSC27 [3],caused apoptosis of senescent cells
same,time after addition of SAE from which senescent and control group differ statistically,PSC27 [3]; caspase 3/7 activity,≥ 16 h
same,percentage of surviving senescent cells,PSC27 [4]; SAE 2000 μM,approximately 10%
same,survival of proliferating cells,PSC27 [4]; SAE 3000 μM,not significantly reduced
same,concentration from which significant death of senescent cells is induced,PSC27 [4]; vs control proliferating cells,200 µM
same,indices of DNA damage or apoptosis,PC3/PSC27 tumors; MIT-treated animals administered with SAE,significantly enhanced
same,caspase 3 cleavage activity,PC3/PSC27 tumors; SAE applied during treatment,significantly increased
same,degree of DNA damage and apoptosis,"PC3/PSC27 tumors; single agent compared with placebo, 7 days after first SAE administration",could not induce DNA damage or cause apoptosis
